Literature values, collected in EP3125915B1, “PROCESS FOR PREPARING A POWDERED MIXTURE OF BORNEOL AND PLANT PROTEINS TO BE USED AS DIETARY OR FOOD SUPPLEMENT, AND RELATED DIETARY OR FOOD SUPPLEMENT” (priority 2014, dated 2015).
Read-outs that look alike come from different tables or passages of the source.

How the values were obtained:
[1] = with borneol
[2] = with borneol; remark: listed apart in the source
[3] = not given; remark: listed apart in the source
[4] = not given; remark: listed apart in the source
[5] = with borneol; remark: listed apart in the source
[6] = with borneol; remark: listed apart in the source

NC(=O)N1c2ccccc2C=Cc2ccccc21 [carbamazepine]
bioavailability of carbamazepine [1]: significantly improve

Cc1ncc(CNC(=O)N(CCCl)N=O)c(N)n1 [nimustine]
bioavailability of nimustine in the CSF [2]: increase

OCc1ccc(O[C@@H]2O[C@H](CO)[C@@H](O)[C@H](O)[C@H]2O)cc1 [gastrodin]
peak time of gastrodin in the plasma (administration of gastrodin alone): 30 min
peak time of gastrodin in the plasma (gastrodin co-administrated with borneol): 5 to 15 min
bioavailability of gastrodigenin in the brain was increased by (gastrodin co-administrated with borneol, compared with gastrodin alone): 33.6-108.8%

Cc1nc(C)c(C)nc1C.O=P(O)(O)O [TMPP, tetramethylpyrazine phosphate]
oral bioavailability of TMPP in brain tissue, times increased than that without borneol ([3]; oral borneol 15 mg kg^-1): 1.12 times
oral bioavailability of TMPP in mice plasma, times increased than that without borneol ([3]; oral borneol 15 mg kg^-1): 1.52 times
oral bioavailability of TMPP in brain tissue, times increased than that without borneol ([3]; oral borneol 30 mg kg^-1): 1.62 times
oral bioavailability of TMPP in mice plasma, times increased than that without borneol ([3]; oral borneol 30 mg kg^-1): 2.21 times
oral bioavailability of TMPP in brain tissue, times increased than that without borneol ([3]; oral borneol 90 mg kg^-1): 1.93 times
oral bioavailability of TMPP in mice plasma, times increased than that without borneol ([3]; oral borneol 90 mg kg^-1): 2.95 times

COC(=O)C1=CO[C@@H](O[C@@H]2O[C@H](CO)[C@@H](O)[C@H](O)[C@H]2O)[C@@H]2C(CO)=CC[C@H]12 [geniposide]
brain delivery of geniposide ([4]; borneol high dose increasing from 2.0 g/kg to 4.0 g/kg): decreased
delivery of geniposide in the rat brain ([4]; borneol low dose range of 0.05-2.0 g/kg): increases
permeability of geniposide ([5]; cortex and striatum regions): no change
permeability of geniposide ([5]; hippocampus and hypothalamus regions): increase

O=c1c(O)c(-c2ccc(O)c(O)c2)oc2cc(O)cc(O)c12 [quercetin]
absorption of quercetin in mice brain tissue [6]: improves
